The values that follow come from patent US5424326A, “Phenyl-1,2,5-oxadiazolecarboxamide-2-oxides, their preparation and their use” (Cassella Aktiengesellschaft, priority 1992, dated 1995).

The first experiment has as its system pulmonary artery of the guinea-pig. The experiment in a line: relaxation of potassium-depolarised pulmonary artery strips of the guinea-pig (CaCl2-induced contraction). The settings on record: 40 mmol/l potassium, 0.5 mmol/l CaCl2; cumulative addition; average value of 4 to 6 vessel strips; read-out: IC50 (concentration which inhibits the contraction by 50%). On the procedure: In this method, spiral strips of the pulmonary artery of the guinea-pig are depolarised with 40 mmol/l of potassium after equiliberation in calcium-free Tyrode solution. An addition of 0.5 mmol/l of CaCl2 then induces a contraction.
The relaxing action of the test substance is determined by cumulative addition in 1/2 log 10 graded concentrations.
In the case of “N-(3-Diethylaminopropyl)-3-phenyl-1,2,5-oxadiazole-4-carboxamide-2-oxide [Compound 6a]”, the IC50 was 400 nM.

In the case of “N-Methyl-3-(3,4-dimethoxyphenyl)-1,2,5-oxadiazole-4-carboxamide-2-oxide [Compound 4a]”, the IC50 was found to be 5000 nM.

As for “N-Butyl-3-phenyl-1,2,5-oxadiazole-4-carboxamide-2-oxide [Compound 5a]”, the IC50 is 700 nM.

The experiment is the same for the next values; noted with them: Cavia porcellus; 40 mmol/l potassium, 0.5 mmol/l CaCl2; cumulative addition; average value of 4 to 6 vessel strips; read-out: IC50 (concentration which inhibits the contraction by 50%).
As for `CCOC(=O)[N-]c1cn(N2CCOCC2)n[o+]1` [Molsidomine, reference compound], the IC50 is 300000 nM.

Turning to `CNC(=O)c1c(-c2ccccc2)no[n+]1[O-]` [Compound 1a, N-Methyl-4-phenyl-1,2,5-oxadiazole-3-carboxamide-2-oxide], the IC50 was 1000 nM.

As for `COc1ccc(-c2no[n+]([O-])c2C(=O)NCCN(C(C)C)C(C)C)cc1OC` [Compound 13a], the IC50 is 300 nM.

With `O=C(NCc1ccncc1)c1c(-c2ccccc2)no[n+]1[O-]` [Compound 14a], the IC50 worked out at 500 nM.

Regarding `O=C(NCc1cccnc1)c1c(-c2ccccc2)no[n+]1[O-]` [Compound 7a], the IC50 was 300 nM.

As for `O=C(NCc1cccnc1)c1no[n+]([O-])c1-c1ccccc1` [Compound 7b], the IC50 turned out to be 2000 nM.

On to `CC(C)N(CCNC(=O)c1no[n+]([O-])c1-c1ccccc1)C(C)C` [Compound 12b], for which the IC50 turned out to be 2000 nM.

On to `O=[N+]([O-])OC1COC2C(O)COC12` (stereo not shown) [Isosorbide-5-mononitrate, reference compound], for which the IC50 is above 100000 nM.

Take `NC(=O)CNC(=O)c1c(-c2ccccc2)no[n+]1[O-]` [Compound 10a]: the IC50 was found to be 1000 nM.

For the molecule `O=C(NCc1ccncc1)c1no[n+]([O-])c1-c1ccccc1` [Compound 14b], the IC50 worked out at 1000 nM.
